Test results: ChEMBL document CHEMBL3885861, “Open TG-GATES”

Species: Rattus norvegicus
Test: Open TG-GATES - Regimen: Daily Repeat
Type: toxicity, organism-based, Sprague-Dawley
Design: regimen Daily Repeat, gender Male, age 6 weeks
Details: in vivo, po, 50 mg/kg, route gavage, dose level Low; for APTT / Bas / Eos / Fbg / Hb / Ht / Lym / MCH / MCHC / MCV / Mono / Neu / PT / Plat / RBC / Ret / WBC: tissue Blood; for KIDNEY_L / KIDNEY_R / KIDNEY_TOTAL: tissue Kidney; for LIVER: tissue Liver; for A/G / ALP / ALT / AST / BUN / CRE / Ca / Cl / DBIL / GLC / IP / K / LDH / Na / PL / RALB / TBIL / TC / TG / TP / gamma-GTP: tissue Plasma

CN1C(=O)OC(C)(C)C1=O [TRIMETHADIONE] showed a TERMINAL_BW (72 h, time 3 day) of 239.4 g, an APTT (72 h, time 3 day) of 17.8 s and a Bas (72 h, time 3 day) of 0%. It also gave an Eos (72 h, time 3 day) of 1%, a Fbg (72 h, time 3 day) of 290.4 mg/dL and a Hb (72 h, time 3 day) of 13.8 g/dL. For the same compound, the Ht (72 h, time 3 day) was 41%, the Lym (72 h, time 3 day) was 74.8% and the MCH (72 h, time 3 day) was 21.2 pg. The MCHC (72 h, time 3 day) was 33.6%, the MCV (72 h, time 3 day) was 63.2 fL and the Mono (72 h, time 3 day) was 3%. The Neu (72 h, time 3 day) was 20.8%, the PT (72 h, time 3 day) was 13 s and the Plat (72 h, time 3 day) was 127.3 x10_4/uL. It also gave an RBC (72 h, time 3 day) of 649 x10_4/ul, a Ret (72 h, time 3 day) of 6.9% and a WBC (72 h, time 3 day) of 101.6 x10_2/uL. It also gave a KIDNEY_L (72 h, time 3 day) of 1 g, a KIDNEY_R (72 h, time 3 day) of 1 g and a KIDNEY_TOTAL (72 h, time 3 day) of 2 g. For the same compound, the LIVER (72 h, time 3 day) was 11.2 g, the A/G (72 h, time 3 day) was 0.9 and the ALP (72 h, time 3 day) was 1701.8 IU/L. The ALT (72 h, time 3 day) was 40.4 IU/L, the AST (72 h, time 3 day) was 73.8 IU/L and the BUN (72 h, time 3 day) was 15.2 mg/dL. For the same compound, the CRE (72 h, time 3 day) was 0.2 mg/dL, the Ca (72 h, time 3 day) was 11.1 mg/dL and the Cl (72 h, time 3 day) was 106.4 meq/L. It also gave a DBIL (72 h, time 3 day) of 0.008 mg/dL, a GLC (72 h, time 3 day) of 178.4 mg/dL and an IP (72 h, time 3 day) of 6.8 mg/dL. It also gave a K (72 h, time 3 day) of 4.7 meq/L, an LDH (72 h, time 3 day) of 87.2 IU/L and a Na (72 h, time 3 day) of 141.6 meq/L. The PL (72 h, time 3 day) was 166 mg/dL, the RALB (72 h, time 3 day) was 2.6 g/dL and the TBIL (72 h, time 3 day) was 0.05 mg/dL. For the same compound, the TC (72 h, time 3 day) was 83 mg/dL, the TG (72 h, time 3 day) was 123.8 mg/dL and the TP (72 h, time 3 day) was 5.7 g/dL. The gamma-GTP (72 h, time 3 day) was 1 IU/L, the TERMINAL_BW ([…], time 7 day) was 283.2 g and the TERMINAL_BW ([…], time 14 day) was 331.1 g. For the same compound, the TERMINAL_BW ([…], time 28 day) was 426.4 g, the APTT ([…], time 7 day) was 18.9 s and the Bas ([…], time 7 day) was 0%. The Eos ([…], time 7 day) was 1.2%, the Fbg ([…], time 7 day) was 255.8 mg/dL and the Hb ([…], time 7 day) was 13.9 g/dL. For the same compound, the Ht ([…], time 7 day) was 41.1%, the Lym ([…], time 7 day) was 74.6% and the MCH ([…], time 7 day) was 21.1 pg. The MCHC ([…], time 7 day) was 33.9%, the MCV ([…], time 7 day) was 62.2 fL and the Mono ([…], time 7 day) was 2.2%. It also gave a Neu ([…], time 7 day) of 21.8%, a PT ([…], time 7 day) of 13.7 s and a Plat ([…], time 7 day) of 137 x10_4/uL. For the same compound, the RBC ([…], time 7 day) was 660.4 x10_4/ul, the Ret ([…], time 7 day) was 5.5% and the WBC ([…], time 7 day) was 92.6 x10_2/uL. The APTT ([…], time 14 day) was 21.8 s, the Bas ([…], time 14 day) was 0.2% and the Eos ([…], time 14 day) was 1%. For the same compound, the Fbg ([…], time 14 day) was 271.2 mg/dL, the Hb ([…], time 14 day) was 14.9 g/dL and the Ht ([…], time 14 day) was 43.7%. It also gave a Lym ([…], time 14 day) of 76%, an MCH ([…], time 14 day) of 20.9 pg and an MCHC ([…], time 14 day) of 34.2%. For the same compound, the MCV ([…], time 14 day) was 61.3 fL, the Mono ([…], time 14 day) was 2.2% and the Neu ([…], time 14 day) was 20.6%. For the same compound, the PT ([…], time 14 day) was 13.4 s, the Plat ([…], time 14 day) was 118 x10_4/uL and the RBC ([…], time 14 day) was 712.8 x10_4/ul. It also gave a Ret ([…], time 14 day) of 4.1%, a WBC ([…], time 14 day) of 104.6 x10_2/uL and an APTT ([…], time 28 day) of 19.5 s. It also gave a Bas ([…], time 28 day) of 0.4%, an Eos ([…], time 28 day) of 1.4% and a Fbg ([…], time 28 day) of 257.6 mg/dL. It also gave a Hb ([…], time 28 day) of 15.7 g/dL, a Ht ([…], time 28 day) of 45.3% and a Lym ([…], time 28 day) of 80.2%. It also gave an MCH ([…], time 28 day) of 19.8 pg, an MCHC ([…], time 28 day) of 34.6% and an MCV ([…], time 28 day) of 57.3 fL. For the same compound, the Mono ([…], time 28 day) was 2%, the Neu ([…], time 28 day) was 15.4% and the PT ([…], time 28 day) was 13.9 s. It also gave a Plat ([…], time 28 day) of 108.7 x10_4/uL, an RBC ([…], time 28 day) of 789.4 x10_4/ul and a Ret ([…], time 28 day) of 2.4%. For the same compound, the WBC ([…], time 28 day) was 118.6 x10_2/uL, the KIDNEY_L ([…], time 7 day) was 1.2 g and the KIDNEY_R ([…], time 7 day) was 1.2 g. The KIDNEY_TOTAL ([…], time 7 day) was 2.4 g, the KIDNEY_L ([…], time 14 day) was 1.3 g and the KIDNEY_R ([…], time 14 day) was 1.3 g. The KIDNEY_TOTAL ([…], time 14 day) was 2.6 g, the KIDNEY_L ([…], time 28 day) was 1.5 g and the KIDNEY_R ([…], time 28 day) was 1.5 g. The KIDNEY_TOTAL ([…], time 28 day) was 3 g, the LIVER ([…], time 7 day) was 13.1 g and the LIVER ([…], time 14 day) was 13.8 g. The LIVER ([…], time 28 day) was 16.2 g, the A/G ([…], time 7 day) was 0.8 and the ALP ([…], time 7 day) was 1932.2 IU/L. The ALT ([…], time 7 day) was 44.4 IU/L, the AST ([…], time 7 day) was 76.8 IU/L and the BUN ([…], time 7 day) was 16.6 mg/dL. The CRE ([…], time 7 day) was 0.2 mg/dL, the Ca ([…], time 7 day) was 10.9 mg/dL and the Cl ([…], time 7 day) was 105.4 meq/L. It also gave a DBIL ([…], time 7 day) of 0.006 mg/dL, a GLC ([…], time 7 day) of 187.8 mg/dL and an IP ([…], time 7 day) of 7 mg/dL. It also gave a K ([…], time 7 day) of 4.2 meq/L, an LDH ([…], time 7 day) of 79.6 IU/L and a Na ([…], time 7 day) of 143 meq/L. The PL ([…], time 7 day) was 158 mg/dL, the RALB ([…], time 7 day) was 2.6 g/dL and the TBIL ([…], time 7 day) was 0.046 mg/dL. The TC ([…], time 7 day) was 75 mg/dL, the TG ([…], time 7 day) was 113.6 mg/dL and the TP ([…], time 7 day) was 5.8 g/dL. For the same compound, the gamma-GTP ([…], time 7 day) was 1.2 IU/L, the A/G ([…], time 14 day) was 0.8 and the ALP ([…], time 14 day) was 1421.4 IU/L. It also gave an ALT ([…], time 14 day) of 40.4 IU/L, an AST ([…], time 14 day) of 71.2 IU/L and a BUN ([…], time 14 day) of 16.2 mg/dL. It also gave a CRE ([…], time 14 day) of 0.2 mg/dL, a Ca ([…], time 14 day) of 10.7 mg/dL and a Cl ([…], time 14 day) of 105.2 meq/L. For the same compound, the DBIL ([…], time 14 day) was 0.002 mg/dL, the GLC ([…], time 14 day) was 182.6 mg/dL and the IP ([…], time 14 day) was 6.9 mg/dL. For the same compound, the K ([…], time 14 day) was 4.3 meq/L, the LDH ([…], time 14 day) was 131.4 IU/L and the Na ([…], time 14 day) was 144.4 meq/L. It also gave a PL ([…], time 14 day) of 159 mg/dL, an RALB ([…], time 14 day) of 2.7 g/dL and a TBIL ([…], time 14 day) of 0.04 mg/dL. The TC ([…], time 14 day) was 72.4 mg/dL, the TG ([…], time 14 day) was 112.8 mg/dL and the TP ([…], time 14 day) was 6 g/dL. It also gave a gamma-GTP ([…], time 14 day) of 1 IU/L, an A/G ([…], time 28 day) of 0.8 and an ALP ([…], time 28 day) of 1126.4 IU/L. It also gave an ALT ([…], time 28 day) of 33.8 IU/L, an AST ([…], time 28 day) of 63.8 IU/L and a BUN ([…], time 28 day) of 16.6 mg/dL. The CRE ([…], time 28 day) was 0.3 mg/dL, the Ca ([…], time 28 day) was 10.7 mg/dL and the Cl ([…], time 28 day) was 104 meq/L. For the same compound, the DBIL ([…], time 28 day) was 0.006 mg/dL, the GLC ([…], time 28 day) was 180.2 mg/dL and the IP ([…], time 28 day) was 5.3 mg/dL. For the same compound, the K ([…], time 28 day) was 4.3 meq/L, the LDH ([…], time 28 day) was 69.8 IU/L and the Na ([…], time 28 day) was 142 meq/L. The PL ([…], time 28 day) was 162 mg/dL, the RALB ([…], time 28 day) was 2.8 g/dL and the TBIL ([…], time 28 day) was 0.042 mg/dL. It also gave a TC ([…], time 28 day) of 73.6 mg/dL, a TG ([…], time 28 day) of 186.6 mg/dL and a TP ([…], time 28 day) of 6.2 g/dL. The gamma-GTP ([…], time 28 day) was 1.2 IU/L.
